These results are taken from patent US20260356856A1, “KRAS G12S AND G12C INHIBITORS” (MIRATI THERAPEUTICS, INC., priority 2023, published 2026).

The target of one experiment is T1, KRas G12C (Homo sapiens, UniProt P01116, G12C).
T1 construct: Biotinylated KRas (corresponding to amino acids 1-169, produced at Accelegan Inc.); biotin (biotinylated); purchased Accelegan Inc
Description: KRas binding assay, TR-FRET displacement of Cy5 labelled tracer. As to conditions: 60-minute incubation at room temperature, 1% DMSO, pH 7.5. In short, it runs like this:
(§1)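 Tb-streptavidin captured biotinylated KRas (1-169) in HEPES 50 mM, DTT 1 mM, MgCl2 5 mM, Tween-20 0.005% (pH 7.5), alongside tracer and compound at 1% final DMSO. One hour at RT, then read; IC50 from 4-parameter POC fit.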

A further experiment deals with T2, KRas G12S (Homo sapiens, UniProt P01116, G12S).
T2 construct: Biotinylated KRas (corresponding to amino acids 1-169, produced at Accelegan Inc.); biotin (biotinylated); purchased Accelegan Inc
T2 sequence (P01116 1-169 isoform P01116-2 G12S): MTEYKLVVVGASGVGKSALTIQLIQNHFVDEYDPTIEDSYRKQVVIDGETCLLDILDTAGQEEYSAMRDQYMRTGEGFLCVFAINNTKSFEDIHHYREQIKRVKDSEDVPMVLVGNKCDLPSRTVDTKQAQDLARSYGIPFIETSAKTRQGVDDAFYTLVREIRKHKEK
The experiment is described as above. Particulars: 60-minute incubation at room temperature, 1% DMSO, pH 7.5. In short, it runs like this:
as §1

The target in a further experiment is T3, KRas WT (Homo sapiens, UniProt P01116).
T3 construct: Biotinylated KRas (corresponding to amino acids 1-169, produced at Accelegan Inc.); biotin (biotinylated); purchased Accelegan Inc
T3 sequence (P01116 1-169 isoform P01116-2): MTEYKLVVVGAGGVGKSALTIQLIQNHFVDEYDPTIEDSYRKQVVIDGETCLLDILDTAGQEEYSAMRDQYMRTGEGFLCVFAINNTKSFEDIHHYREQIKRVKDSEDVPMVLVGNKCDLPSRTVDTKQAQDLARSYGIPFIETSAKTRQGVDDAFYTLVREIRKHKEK
The description is as above. Particulars: 60-minute incubation at room temperature, 1% DMSO, pH 7.5. In a few lines:
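Biotinylated KRas (aa 1-169) incubated with Cy5-labelled tracer, terbium streptavidin and compound (1% DMSO final) in 50 mM HEPES pH 7.5, 5 mM MgCl2, 0.005% Tween-20, 1 mM DTT. Tracer displacement read by TR-FRET after 60 min at room temperature; POC values fitted to 4-parameter IC50 equation.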

Experiment [1] has as its target T4, KRas-mediated phosphorylation of ERK in MKN1 cells (Homo sapiens, UniProt P01116).
T4 construct: pERK HTRF read-out
Nature of the experiment: Inhibition of KRas-mediated phosphorylation of ERK (HTRF), MKN1 cells. Type of experiment: cell-based. As to conditions: MKN1 cells (KRas WT); HTRF pERK; 3 h incubation. The method, then:
Inhibition of KRas Phosphorylation of ERK (HTRF) by Exemplary Compounds of Formula (Ia) or (Ib)
Cisbio HTRF Advanced pERK Assay Catalog #64AERPEH • Cells: MKN1, PSN1 • Procedure: • 1. Day 1: Seed 6,000 cells/well −25 μl/well in 384-well white solid bottom plate; RPM1_10% FBS. Incubate overnight at 37 °C/5% CO2. • 2.

Experiment [2] deals with T5, KRas-mediated phosphorylation of ERK in A549 cells (Homo sapiens, UniProt P01116, G12S).
T5 construct: pERK HTRF read-out
T5 sequence (P01116 1-188 isoform P01116-2 G12S): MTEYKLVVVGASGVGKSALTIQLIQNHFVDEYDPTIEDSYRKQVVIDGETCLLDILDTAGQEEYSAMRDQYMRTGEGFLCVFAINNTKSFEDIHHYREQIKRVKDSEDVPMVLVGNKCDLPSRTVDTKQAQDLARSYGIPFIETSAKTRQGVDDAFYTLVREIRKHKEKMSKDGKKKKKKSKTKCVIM
Description: Inhibition of KRas-mediated phosphorylation of ERK (HTRF), A549 cells. Particulars: HTRF pERK, 3 h incubation. The format is cell-based. (In general: TR-FRET usually uses a lanthanide donor and a delayed reading to cut background.)

Experiment [3] addresses T6, KRas-mediated phosphorylation of ERK in H358 cells (Homo sapiens, UniProt P01116, G12C).
T6 construct: pERK HTRF read-out
Nature of the experiment: Inhibition of KRas-mediated phosphorylation of ERK (HTRF), H358 cells. Type of experiment: cell-based. As to conditions: HTRF pERK, 3 h incubation.

T1 sequence (P01116 1-169 isoform P01116-2 G12C): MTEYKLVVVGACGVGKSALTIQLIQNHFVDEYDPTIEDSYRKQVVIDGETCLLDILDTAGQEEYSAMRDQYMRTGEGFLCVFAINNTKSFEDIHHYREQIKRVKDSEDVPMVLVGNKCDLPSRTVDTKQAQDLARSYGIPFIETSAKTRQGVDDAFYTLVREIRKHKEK
T6 sequence (P01116 1-188 isoform P01116-2 G12C): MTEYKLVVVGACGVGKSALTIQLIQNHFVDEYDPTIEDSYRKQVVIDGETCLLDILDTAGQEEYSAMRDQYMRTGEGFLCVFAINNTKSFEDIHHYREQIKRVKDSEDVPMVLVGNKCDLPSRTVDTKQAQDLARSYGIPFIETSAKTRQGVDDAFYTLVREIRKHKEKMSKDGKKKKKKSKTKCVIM
T4 sequence (P01116 1-188 isoform P01116-2): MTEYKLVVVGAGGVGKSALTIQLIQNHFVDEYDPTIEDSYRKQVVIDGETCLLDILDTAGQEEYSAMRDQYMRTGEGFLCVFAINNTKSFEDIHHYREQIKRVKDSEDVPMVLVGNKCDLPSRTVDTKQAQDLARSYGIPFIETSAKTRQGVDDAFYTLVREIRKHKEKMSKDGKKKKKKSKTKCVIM

In general, IC50 refers to the midpoint of a concentration-inhibition curve. Read a high IC50 as weaker potency. As to `Cc1ccn(C(=O)C2CCCN(c3nc(OC[C@@]45CCCN4C[C@H](F)C5)nc4c(F)c(-c5ccc(F)c6sc(N)c(C#N)c56)c(Cl)cc34)CC2)n1` (stereo partly drawn) [Example 130, 2-amino-4-(6-chloro-8-fluoro-2-(((2R,7aS)-2-fluorotetrahydro-1H-pyrrolizin-7a(5H)-yl)methoxy)-4-(4-(3-methyl-1H-pyrazole-1-carbonyl)azepan-1-yl)quinazolin-7-yl)-7-fluorobenzo[b]thiophene-3-carbonitrile], the IC50 on KRas G12C was 11 nM; at KRas G12S, 8 nM; on KRas WT, 10 nM; in experiment [1] it was 200 nM; in experiment [2], 7 nM; in experiment [3] it was 7 nM.

Regarding `N#Cc1c(N)sc2c(F)ccc(-c3c(Cl)cc4c(N5CCC(C(=O)Oc6cccc(Cl)c6)CC5)nc(OC[C@@]56CCCN5C[C@H](F)C6)nc4c3F)c12` [Example 297, 3-chlorophenyl 1-(7-(2-amino-3-cyano-7-fluorobenzo[b]thiophen-4-yl)-6-chloro-8-fluoro-2-(((2R,7aS)-2-fluorotetrahydro-1H-pyrrolizin-7a(5H)-yl)methoxy)quinazolin-4-yl)piperidine-4-carboxylate], the IC50 at KRas G12C is 23 nM; at KRas G12S it was 45 nM; at KRas WT it was 99 nM; in experiment [1], 299 nM; in experiment [2], 101 nM; in experiment [3], 32 nM.

Consider `CCc1c(F)ccc2cc(O)cc(-c3ncc4c(N5CCC(C(=O)n6cc(N(C)C)cn6)CC5)nc(OC[C@@]56CCCN5C[C@H](F)C6)nc4c3F)c12` [Example 64, (4-(dimethylamino)-1H-pyrazol-1-yl)(1-(7-(8-ethyl-7-fluoro-3-hydroxynaphthalen-1-yl)-8-fluoro-2-(((2R,7aS)-2-fluorotetrahydro-1H-pyrrolizin-7a(5H)-yl)methoxy)pyrido[4,3-d]pyrimidin-4-yl)piperidin-4-yl)methanone], for which the IC50 at KRas G12C stood at 13 nM; at KRas G12S, 40 nM; on KRas WT, 32 nM; in experiment [1] it was 4500 nM; in experiment [2], 119 nM; in experiment [3], 4600 nM.

Regarding `COCCN(C(C)=O)C(=O)C1CCN(c2nc(OC[C@@]34CCCN3C[C@H](F)C4)nc3c(F)c(-c4ccc(F)c5sc(N)c(C#N)c45)c(Cl)cc23)CC1` [Example 305, N-acetyl-1-(7-(2-amino-3-cyano-7-fluorobenzo[b]thiophen-4-yl)-6-chloro-8-fluoro-2-(((2R,7aS)-2-fluorotetrahydro-1H-pyrrolizin-7a(5H)-yl)methoxy)quinazolin-4-yl)-N-(2-methoxyethyl)piperidine-4-carboxamide], the IC50 at KRas G12C is 12 nM; at KRas G12S, 17 nM; at KRas WT, 21 nM; in experiment [1], 78 nM; in experiment [2], 21 nM; in experiment [3], 19 nM.

On to `CN(CCCC(=O)Oc1ccccc1F)c1nc(OC[C@@]23CCCN2C[C@H](F)C3)nc2c(F)c(-c3ccc(F)c4sc(N)c(C#N)c34)c(Cl)cc12` [Example 218, 2-fluorophenyl 4-((7-(2-amino-3-cyano-7-fluorobenzo[b]thiophen-4-yl)-6-chloro-8-fluoro-2-(((2R,7aS)-2-fluorotetrahydro-1H-pyrrolizin-7a(5H)-yl)methoxy)quinazolin-4-yl)(methyl)amino)butanoate], for which the IC50 at KRas G12C worked out at 3 nM; at KRas G12S it was 16 nM; at KRas WT it was 83 nM; in experiment [1], 322 nM; in experiment [2], 175 nM; in experiment [3], 15 nM.

As to `N#Cc1c(N)sc2c(F)ccc(-c3c(Cl)cc4c(N5CCC(C(=O)N6C7CCC6COC7)CC5)nc(OC[C@@]56CCCN5C[C@H](F)C6)nc4c3F)c12` [Example 247, 4-(4-(4-(3-oxa-8-azabicyclo[3.2.1]octane-8-carbonyl)piperidin-1-yl)-6-chloro-8-fluoro-2-(((2R,7aS)-2-fluorotetrahydro-1H-pyrrolizin-7a(5H)-yl)methoxy)quinazolin-7-yl)-2-amino-7-fluorobenzo[b]thiophene-3-carbonitrile], the IC50 on KRas G12C came out at 21 nM; at KRas G12S it was 24 nM; on KRas WT, 12 nM; in experiment [1], 61 nM; in experiment [2], 677 nM; in experiment [3] it was 296 nM.

As to `CCc1c(F)ccc2cc(O)cc(-c3ncc4c(NC[C@@H]5C[C@H]5C(=O)N(C)C(C)=O)nc(OC[C@@]56CCCN5C[C@H](F)C6)nc4c3F)c12` [Example 281, trans-N-acetyl-2-(((7-(8-ethyl-7-fluoro-3-hydroxynaphthalen-1-yl)-8-fluoro-2-(((2R,7aS)-2-fluorotetrahydro-1H-pyrrolizin-7a(5H)-yl)methoxy)pyrido[4,3-d]pyrimidin-4-yl)amino)methyl)-N-methylcyclopropane-1-carboxamide], the IC50 turned out to be 9 nM on KRas G12C; 10 nM on KRas G12S; 8 nM at KRas WT; 41 nM in experiment [1]; 243 nM in experiment [2]; 198 nM in experiment [3].

Take `CCc1c(F)ccc2cc(O)cc(-c3ncc4c(N5CCCC(C(=O)n6ccc(C)n6)CCC5)nc(OC[C@@]56CCCN5C[C@H](F)C6)nc4c3F)c12` [Example 54, (1-(7-(8-ethyl-7-fluoro-3-hydroxynaphthalen-1-yl)-8-fluoro-2-(((2R,7aS)-2-fluorotetrahydro-1H-pyrrolizin-7a(5H)-yl)methoxy)pyrido[4,3-d]pyrimidin-4-yl)azocan-5-yl)(3-methyl-1H-pyrazol-1-yl)methanone]: the IC50 on KRas G12C came to 502 nM; on KRas G12S it was 266 nM; at KRas WT it was 483 nM; in experiment [1], 2420 nM; in experiment [2], 334 nM; in experiment [3], 1420 nM.

As for `CCc1c(F)ccc2cc(O)cc(-c3ncc4c(N(C)CCCC(=O)n5ccc(C)n5)nc(OC[C@@]56CCCN5C[C@H](F)C6)nc4c3F)c12` [Example 110, 4-((7-(8-ethyl-7-fluoro-3-hydroxynaphthalen-1-yl)-8-fluoro-2-(((2R,7aS)-2-fluorotetrahydro-1H-pyrrolizin-7a(5H)-yl)methoxy)pyrido[4,3-d]pyrimidin-4-yl)(methyl)amino)-1-(3-methyl-1H-pyrazol-1-yl) butan-1-one], the IC50 was below 2 nM at KRas G12C; below 2 nM at KRas G12S; 58 nM on KRas WT; 1320 nM in experiment [1]; 12 nM in experiment [2]; 91 nM in experiment [3].

As for `Cc1ccn(C(=O)C2CCCN(c3nc(OCC4(CN(C)C)CC4)nc4c(F)c(-c5ccc(F)c6sc(N)c(C#N)c56)c(Cl)cc34)CC2)n1` (stereo not drawn) [Example 227, 2-amino-4-(6-chloro-2-((1-((dimethylamino)methyl)cyclopropyl)methoxy)-8-fluoro-4-(4-(3-methyl-1H-pyrazole-1-carbonyl)azepan-1-yl)quinazolin-7-yl)-7-fluorobenzo[b]thiophene-3-carbonitrile], the IC50 at KRas G12C was 19 nM; on KRas G12S, 13 nM; on KRas WT it was 93 nM; in experiment [1], 522 nM; in experiment [2] it was 46 nM; in experiment [3], 185 nM.

In the case of `CN(CCN(C)c1nc(OC[C@@]23CCCN2C[C@H](F)C3)nc2c(F)c(-c3ccc(F)c4sc(N)c(C#N)c34)c(Cl)cc12)C(=O)n1cncn1` [Example 232, N-(2-((7-(2-amino-3-cyano-7-fluorobenzo[b]thiophen-4-yl)-6-chloro-8-fluoro-2-(((2R,7aS)-2-fluorotetrahydro-1H-pyrrolizin-7a(5H)-yl)methoxy)quinazolin-4-yl)(methyl)amino)ethyl)-N-methyl-1H-1,2,4-triazole-1-carboxamide], the IC50 on KRas G12C came out at 3 nM; on KRas G12S, 7 nM; at KRas WT, 12 nM; in experiment [1], 97 nM; in experiment [2] it was 234 nM; in experiment [3], 3 nM.

`CN(CCCC(=O)Nc1ccncc1)c1nc(OC[C@@]23CCCN2C[C@H](F)C3)nc2c(F)c(-c3ccc(F)c4sc(N)c(C#N)c34)c(Cl)cc12` [Example 269, 4-((7-(2-amino-3-cyano-7-fluorobenzo[b]thiophen-4-yl)-6-chloro-8-fluoro-2-(((2R,7aS)-2-fluorotetrahydro-1H-pyrrolizin-7a(5H)-yl)methoxy)quinazolin-4-yl)(methyl)amino)-N-(pyridin-4-yl) butanamide]: the IC50 was 4 nM at KRas G12C; 6 nM on KRas G12S; 9 nM at KRas WT; 388 nM in experiment [1]; 1180 nM in experiment [2]; 411 nM in experiment [3].
